Data taken from the NIST ThermoML archive (doi:10.1016/j.jct.2009.12.002).
“And” between values parts separate entries of the source, which are not always exact repeats. Equal values may be shown once.

Settings: Liquid; for mass density: 101.33 kPa, Pycnometric method; for speed of sound: Pulse-echo method

CC(C)CCCCCCCOC(=O)c1ccccc1C(=O)OCCCCCCCC(C)C
Settings | mass density
273.84 K | 980.22 kg/m3
274.06 K | 980.07 kg/m3
274.07 K | 980.08 kg/m3
274.35 K | 979.86 kg/m3
282.95 K | 973.75 kg/m3
298.25 K | 962.88 kg/m3
298.28 K | 962.83 kg/m3
305.26 K | 957.83 kg/m3
313.27 K | 952.21 kg/m3 and 952.15 kg/m3
333.28 K | 937.93 kg/m3
353.29 K | 923.76 kg/m3
373.29 K | 909.62 kg/m3
393.31 K | 895.47 kg/m3
413.33 K | 881.29 kg/m3

Settings | speed of sound [m/s]
293.06 K, 1185 kPa | 1436.6
298.08 K, 1100 kPa | 1419.9
298.08 K, 5400 kPa | 1439
298.08 K, 10180 kPa | 1459.7
298.08 K, 16980 kPa | 1488
298.08 K, 25560 kPa | 1522
298.08 K, 32760 kPa | 1549.3
298.08 K, 40150 kPa | 1576.5
298.08 K, 47800 kPa | 1602.9
298.08 K, 55510 kPa | 1629.7
298.08 K, 62350 kPa | 1652.4
313.18 K, 1050 kPa | 1367.8
313.18 K, 1110 kPa | 1367.9
313.18 K, 15410 kPa | 1432.5
313.18 K, 29860 kPa | 1491.8
313.18 K, 44860 kPa | 1548.5
313.18 K, 60370 kPa | 1602.9
313.18 K, 75510 kPa | 1652.4
313.18 K, 89970 kPa | 1697
313.18 K, 105660 kPa | 1742.8
313.18 K, 119950 kPa | 1782.4
333.24 K, 1100 kPa | 1304.1
333.24 K, 1130 kPa | 1304.1
333.24 K, 14910 kPa | 1370.1
333.24 K, 29760 kPa | 1434.3
333.24 K, 45000 kPa | 1494.4
333.24 K, 60580 kPa | 1551.1
333.24 K, 75550 kPa | 1601.7
333.24 K, 90480 kPa | 1649.2
333.24 K, 105430 kPa | 1694
333.24 K, 120280 kPa | 1736.3
333.24 K, 139660 kPa | 1788.5
353.18 K, 1010 kPa | 1241.9
353.18 K, 1280 kPa | 1243.1
353.18 K, 10060 kPa | 1288.5
353.18 K, 19830 kPa | 1335.3
353.18 K, 29890 kPa | 1380.3
353.18 K, 40170 kPa | 1423.1
353.18 K, 50230 kPa | 1462.7
353.18 K, 60350 kPa | 1500.4
353.18 K, 70310 kPa | 1535.6
353.18 K, 80170 kPa | 1569
353.18 K, 90020 kPa | 1601
353.18 K, 104640 kPa | 1646
353.18 K, 122120 kPa | 1697.1
353.18 K, 139450 kPa | 1745
373.1 K, 460 kPa | 1179.1
373.1 K, 1150 kPa | 1183.1
373.1 K, 1350 kPa | 1184.4
373.1 K, 10370 kPa | 1233.7
373.1 K, 20030 kPa | 1282.4
373.1 K, 29930 kPa | 1328.6
373.1 K, 40300 kPa | 1373.8
373.1 K, 50050 kPa | 1413.5
373.1 K, 60040 kPa | 1452
373.1 K, 70060 kPa | 1488.7
373.1 K, 80050 kPa | 1523.7
373.1 K, 90060 kPa | 1557.2
373.1 K, 100440 kPa | 1590.2
373.1 K, 110260 kPa | 1620.7
373.1 K, 120180 kPa | 1649.7
373.1 K, 130570 kPa | 1679.6
373.1 K, 140300 kPa | 1707
393.54 K, 1240 kPa | 1125.2
393.54 K, 1280 kPa | 1125.4
393.54 K, 14940 kPa | 1203.3
393.54 K, 29730 kPa | 1277.1
393.54 K, 44510 kPa | 1343.3
393.54 K, 59690 kPa | 1404.8
393.54 K, 75010 kPa | 1462
393.54 K, 104930 kPa | 1563
393.54 K, 122450 kPa | 1616.7
393.54 K, 139770 kPa | 1666.6
413.41 K, 1110 kPa | 1069.6
413.41 K, 1130 kPa | 1069.8
413.41 K, 14800 kPa | 1152.3
413.41 K, 29640 kPa | 1229.8
413.41 K, 45070 kPa | 1301.7
413.41 K, 60270 kPa | 1365.4
413.41 K, 75540 kPa | 1423.9
413.41 K, 90150 kPa | 1476
413.41 K, 105150 kPa | 1526
413.41 K, 119720 kPa | 1571.9
413.41 K, 139510 kPa | 1630.3
